Assay results reported in PubChem BioAssay (NCI).
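GI50 marks 50% less growth. TGI: total growth inhibition.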

Legend:
Test in all cases: DTP human tumour cell line panel, 384-well format
[1] = tested on: K-562 leukemia
[2] = tested on: KM12 colon
[3] = tested on: SNB-19 CNS
[4] = tested on: TK-10 renal
[5] = tested on: M14 melanoma
[6] = tested on: NCI-H322M lung
[7] = tested on: OVCAR-4 ovarian
[8] = tested on: OVCAR-5 ovarian
[9] = tested on: UO-31 renal
[10] = tested on: NCI-H226 lung
[11] = tested on: SF-539 CNS
[12] = tested on: CCRF-CEM leukemia
[13] = tested on: NCI-H23 lung
[14] = tested on: RXF 393 renal
[15] = tested on: UACC-257 melanoma
[16] = tested on: IGROV1 ovarian
[17] = tested on: NCI/ADR-RES ovarian
[18] = tested on: PC-3 prostate
[19] = tested on: 786-0 renal
[20] = tested on: EKVX NSCLC
[21] = tested on: NCI-H522 lung
[22] = tested on: UACC-62 melanoma
[23] = tested on: SK-MEL-2 melanoma
[24] = tested on: SF-268 CNS
[25] = tested on: HS 578T breast
[26] = tested on: CAKI-1 renal
[27] = tested on: ACHN renal

## COc1cc([C@@H]2c3cc4c(cc3[C@@H](OC3OC5CO[C@@H](c6cccs6)OC5C(O)C3O)[C@H]3COC(=O)[C@H]23)OCO4)cc(OC)c1O (some centres not stated)
[1]
  GI50: 0.154 µM
  TGI: 1.42 µM
[2]
  GI50: 0.113 µM
  TGI: 1.35 µM
[3]
  GI50: 0.219 µM
  TGI: > 100 µM
[4]
  GI50: 0.825 µM
  TGI: 2.24 µM
[5]
  GI50: 0.16 µM
  TGI: 1.15 µM
[6]
  GI50: 3.25 µM
  TGI: 14.3 µM
[7]
  GI50: 3.42 µM
  TGI: 17.4 µM
[8]
  GI50: 0.395 µM
  TGI: 2.41 µM
[9]
  GI50: 4 µM
  TGI: 17.5 µM
[10]
  GI50: 0.311 µM
  TGI: 8.81 µM
[11]
  GI50: 0.0959 µM
  TGI: 0.56 µM
[12]
  TGI: 0.0219 µM
[13]
  GI50: 0.0771 µM
  TGI: 0.664 µM
[14]
  GI50: 0.685 µM
  TGI: 2.51 µM
[15]
  GI50: 2.85 µM
  TGI: 13.1 µM
[16]
  GI50: 1.35 µM
  TGI: 10 µM
[17]
  GI50: 63.7 µM
  TGI: > 100 µM
[18]
  GI50: 1.39 µM
  TGI: 5.76 µM
[19]
  GI50: 0.197 µM
  TGI: 1.18 µM
[20]
  GI50: 3.01 µM
  TGI: 28.7 µM
[21]
  GI50: 0.198 µM
  TGI: 1.53 µM
[22]
  GI50: 0.103 µM
  TGI: 1.8 µM
[23]
  GI50: 0.567 µM
  TGI: 0.89 µM
[24]
  GI50: 0.134 µM
  TGI: 1.35 µM
[25]
  GI50: 0.0624 µM
  TGI: 0.703 µM
[26]
  GI50: 0.224 µM
  TGI: 4.46 µM
[27]
  GI50: 0.296 µM
